Test results taken from patent publication US20050182124A1, “Ester bacteriostat for stabilizing cosmetics” (VAMA FARMACOSMETICA S.r.l., priority 2004, published 2005).
Converted amounts (≈) assume the structure as drawn. Where two headings read alike, the source gives them in different places.

How the values were obtained:
[1] = system: skin; experiment: Patch test (finn chamber) for skin compatibility: primary irritation and allergic response; format: in vivo, human; conditions: 25 healthy volunteers; about 20 μg solid product on the back, finn chamber 48 hours; read 15 mins, 1 hr and 24 hrs after removal
Experimental: The skin compatibility of the bacteriostat according to the invention, in terms of anergic response and of primary Irritation. was tested with the following patch tests.
A panel of 25 healthy volunteers was subjected to the application onto the back of about 20 μg of solid product with the use of a “finn chamber” (patch test). After 48 hours the “finn chamber” was removed and the skin reactions after 15 mins, 1 hr and 24 hrs from removal were clinically evaluated.

[2] = system: Pseudomonas aeruginosa; experiment: MIC (Minimal Inhibition Concentration) test on bacterial colonies; format: cell-based; conditions: read-out: MIC (Minimal Inhibition Concentration)
Experimental: (§1) With the purpose of evaluating the bacteriostatic activity of the bacteriostats of the invention, the following MIC (Minimal Inhibition Concentration) tests were carried out on bacterial colonies of “Pseudomonas aeruginosa” (Pa) and of “Staphylococcus aureus” (Sa), respectively with pure phenoxyethanol of formula (IV) and with phenoxyethanol ester of PCA of formula (V) of the invention.

[3] = system: Staphylococcus aureus; experiment: as above; format: cell-based; conditions: read-out: MIC (Minimal Inhibition Concentration)
Experimental: as §1

MIC ([2]; Pseudomonas aeruginosa (Pa)) | MIC ([3]; Staphylococcus aureus (Sa)) | SMILES | skin irritation (primary irritation) in patch test [1] | MIC ([2]; Pseudomonas aeruginosa) | MIC ([3]; Staphylococcus aureus) | skin sensitization in patch test [1]
– | – | OCCOc1ccccc1 [phenoxyethanol, 2-phenoxyethanol, reference compound] | moderately irritating | 3200 µg/mL (≈ 23.2 mM) | 6400 µg/mL (≈ 46.3 mM) | –
1000 µg/mL (≈ 4.01 mM) | 1000 µg/mL (≈ 4.01 mM) | O=C1CCC(C(=O)OCCOc2ccccc2)N1 (stereo not shown) [PCA Ester, phenoxyethanol ester of PCA] | not to be irritating | – | – | did not sensitize the skin
